Results on three molecules are retold here after PMC6099400, “A New Benzophenone C-Glucoside and Other Constituents of Pseuduvaria fragrans and Their α-Glucosidase Inhibitory Activity” (Molecules : A Journal of Synthetic Chemistry and Natural …, 2018).

The target in assay [1] is T1, Yeast α-glucosidase enzyme (Saccharomyces cerevisiae, UniProt P53341). The assay can be described thus: Kinetic study of α-glucosidase inhibition (Lineweaver-Burk and secondary plots). Format: biochemical. As to conditions: for mode of enzyme inhibition: Lineweaver-Burk plots; for Slope: Lineweaver-Burk. Here is the method: Lineweaver-Burk plots of the inverted values of velocity (1/V) versus the inverted values of substrate concentration (1/[S]) were prepared. […] To determine the Ki of each amide, we constructed a secondary plot by replotting the reciprocal of Km (1/Km) against inhibitor concentration.
Vacuum liquid chromatography (VLC) and column chromatography (CC) were performed on silica gel 60 (40–63 μm, Merck, Darmstadt, Germany), silica gel 60 (63–200 μm, Merck, Darmstadt, Germany) or Sephadex LH-20 (Pharmacia, Piscataway, NJ, USA) or Diaion HP20 (Mitsubishi Chemical, Tokyo, Japan). For preparative HPLC, a Shim-pack Prep-ODS (No.2025820) column (Shimadzu, Tokyo, Japan), with isocratic 50% methanol in water, SPD-10A UV-Vis detector (Shimadzu, Tokyo, Japan), and flow rate 1 mL/min, was used. NMR spectra were obtained with a Bruker Avance DPX-300 FT-NMR spectrometer (Brucker Corporation, Billerica, MA, USA). High-resolution electrospray ionization mass spectra (HR-ESI-MS) were recorded with a Bruker micro TOF mass spectrometer (Bruker Daltonics, Billerica, MA, USA). Optical rotations were obtained with a PerkinElmer 341 polarimeter (PerkinElmer, Boston, MA, USA). UV spectra were measured on an Agilent Technologies Cary 60 UV-Vis (Agilent, Santa Clara, CA, USA), and IR spectra (Agilent, Santa Clara, CA, USA) were recorded on a Perkin-Elmer FT-IR 1760x spectrophotometer (PerkinElmer, Boston, MA, USA). […] Absorbance in 96-well plates was measured using a microplate reader (Wallac1420 Multilevel counter, Victor3, PerkinElmer).
The kinetic assay of enzyme inhibition was done in a 96-well plate. The enzyme kinetics parameters (Km and Vmax) were obtained by analyzing the double reciprocal Lineweaver-Burk plot (1/V vs. 1/[S]). Each experiment was carried out by varying the concentration of pNPG (2.0, 1.0, 0.5, 0.25, 0.125 mM) in the absence and presence of different concentrations of the test sample. The reaction was monitored at 405 nm by a microplate reader every 5 min for a total time of 30 min. Each experiment was performed in triplicate. […] The inhibition constant (Ki) of each compound was then calculated from the intersection on the abscissa.

In assay [2] the target is T1, Yeast α-glucosidase enzyme. As to conditions: earlier report; cited from earlier work.

Each structure is given as a SMILES string. Like-named read-outs stand apart in the source and are kept apart here.

T1 sequence (P53341 whole entry): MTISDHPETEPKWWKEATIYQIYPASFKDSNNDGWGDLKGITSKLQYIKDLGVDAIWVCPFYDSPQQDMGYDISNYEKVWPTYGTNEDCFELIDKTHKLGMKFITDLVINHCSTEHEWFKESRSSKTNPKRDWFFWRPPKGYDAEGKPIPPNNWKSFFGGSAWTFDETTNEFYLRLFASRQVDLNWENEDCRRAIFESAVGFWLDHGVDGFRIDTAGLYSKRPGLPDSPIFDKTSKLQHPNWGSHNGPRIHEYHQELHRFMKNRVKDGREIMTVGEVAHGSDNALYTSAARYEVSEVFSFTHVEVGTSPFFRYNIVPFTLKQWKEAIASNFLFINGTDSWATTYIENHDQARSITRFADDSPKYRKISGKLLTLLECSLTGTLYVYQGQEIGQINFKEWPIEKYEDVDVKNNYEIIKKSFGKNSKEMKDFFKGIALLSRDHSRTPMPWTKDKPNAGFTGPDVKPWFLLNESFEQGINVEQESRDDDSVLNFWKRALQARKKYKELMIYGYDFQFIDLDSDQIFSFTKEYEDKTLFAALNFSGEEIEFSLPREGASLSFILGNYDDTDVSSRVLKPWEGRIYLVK

For `COc1cc(/C=C/C(=O)NCCc2ccc(O)cc2)ccc1O` [Compound 7, N-trans-feruloyltyramine], the “mode of enzyme inhibition” value in assay [1] was “uncompetitive inhibitors”. The Slope in assay [1] (inhibitor dose 2.0 µM) came to 36.62; in assay [1] (inhibitor dose 4.0 µM), 37.56; in assay [1] (inhibitor dose 8.0 µM) it was 36.51. Besides, the Vmax is reported as 0.0072 ΔA405/min in assay [1] (inhibitor dose 2.0 µM), 0.0044 ΔA405/min in assay [1] (inhibitor dose 4.0 µM) and 0.0027 ΔA405/min in assay [1] (inhibitor dose 8.0 µM).

In the case of `O=C(/C=C/c1ccc(O)cc1)NCCc1ccc(O)cc1` [Compound 6, N-trans-coumaroyltyramine], the “mode of enzyme inhibition” value is “uncompetitive inhibitors” in assay [1] and “uncompetitive α-glucosidase inhibition” in assay [2]. The Slope is reported as 34.55 in assay [1] (inhibitor dose 0.5 µM), 34.67 in assay [1] (inhibitor dose 1.0 µM) and 35.56 in assay [1] (inhibitor dose 2.0 µM). Besides, the figures for the Vmax in assay [1] (inhibitor dose 0.5 µM), in assay [1] (inhibitor dose 1.0 µM) and in assay [1] (inhibitor dose 2.0 µM) were 0.0077 ΔA405/min, 0.0030 ΔA405/min and 0.0018 ΔA405/min, respectively.

Turning to `C[C@H]1O[C@H](O[C@H]2[C@H](O)[C@@H](O)[C@@H](O[C@H]3[C@H](O)[C@@H](O)C(O)O[C@@H]3CO)O[C@@H]2CO)[C@H](O)[C@@H](O)[C@@H]1N[C@H]1C=C(CO)[C@@H](O)[C@H](O)[C@H]1O` (stereo partly shown) [acarbose, reference compound], the “mode of enzyme inhibition” value in assay [1] is given as “competitive inhibition”.
